According to patent US12404295B2, “(Hetero)aryl-methyl-thio-beta-D-galactopyranoside derivatives” (Idorsia Pharmaceuticals Ltd, priority 2019, dated 2025):
Like-named read-outs stand apart in the source and are kept apart here.

Tests used:
human Gal-3 (hGal-3) = human Gal-3 (hGal-3) (Homo sapiens (Human), UniProt P17931); assay: competitive binding assay: biotinylated hGal-3 binding to microplate-adsorbed asialofetuin (ASF)
Outline: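 Serially diluted compounds compete with biotinylated hGal-3 binding to adsorbed asialofetuin (3 hours, 4° C). After washing, streptavidin-peroxidase at 80 ng/mL for 1 hour at 4° C, with ABTS colour read-out. IC50 values are averaged over repeated runs.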

human Gal-1 (hGal-1) = human Gal-1 (hGal-1) (Homo sapiens (Human), UniProt P09382); assay: competitive binding assay: biotinylated hGal-1 binding to microplate-adsorbed asialofetuin (ASF); details: Table 15; read-out: IC50 (Galectin-1 inhibition)
Outline: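 Spectrophotometric competition readout: after compound and biotinylated hGal-1 (300-1000 ng/mL) sit 3 h at 4° C on adsorbed asialofetuin, streptavidin-peroxidase (1 h, 4° C) and ABTS reveal residual binding. Reported IC50 values are means of repeat runs.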

[1] = Gal-3 inhibition, binding of biotinylated hGal-3 to ASF, mean values, read-out: IC50

Sequence of human Gal-1 (hGal-1) (P09382 whole entry): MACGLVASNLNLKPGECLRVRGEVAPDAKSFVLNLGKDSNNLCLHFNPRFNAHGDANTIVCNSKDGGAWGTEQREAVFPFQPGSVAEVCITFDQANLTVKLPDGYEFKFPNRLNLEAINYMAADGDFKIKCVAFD
Sequence of human Gal-3 (hGal-3) (P17931 whole entry): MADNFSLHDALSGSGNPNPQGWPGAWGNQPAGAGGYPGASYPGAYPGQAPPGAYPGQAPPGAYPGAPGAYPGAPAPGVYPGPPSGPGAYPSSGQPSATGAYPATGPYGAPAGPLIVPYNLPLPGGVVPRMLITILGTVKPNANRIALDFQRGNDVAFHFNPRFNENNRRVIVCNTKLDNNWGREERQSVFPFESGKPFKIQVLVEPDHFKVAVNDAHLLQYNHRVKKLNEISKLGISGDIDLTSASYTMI

Compound | IC50 (human Gal-3 (hGal-3); [1]) [nM] | IC50 (human Gal-1 (hGal-1)) [nM] | IC50 (human Gal-3 (hGal-3); Table 10, 2-OMe-Gal inhibitors, read-out: IC50 (Gal-3 inhibition)) [nM] | IC50 (human Gal-3 (hGal-3); Table 9, 2-OMe-Gal inhibitors, read-out: IC50 (Gal-3 inhibition)) [nM]
O=C(NC1CC1)N1CCC(O)([C@H](S[C@@H]2O[C@H](CO)[C@H](O)[C@H](n3cc(-c4cc(F)c(F)c(F)c4)nn3)[C@H]2O)c2ccccc2C(F)(F)F)CC1 [Example 2.49.112R., N-Cyclopropyl-4-((R)-(((2S,3R,4S,5R,6R)-3,5-dihydroxy-6-(hydroxymethyl)-4-(4-(3,4,5-trifluorophenyl)-1H-1,2,3-triazol-1-yl)tetrahydro-2H-pyran-2-yl)thio)(2-(trifluoromethyl)phenyl)methyl)-4-hydroxypiperidine-1-carboxamide] | 50 | 160 |  | 
O=C(NC1CC1)N1CCC(O)([C@@H](S[C@@H]2O[C@H](CO)[C@H](O)[C@H](n3cc(-c4cc(F)c(F)c(F)c4)nn3)[C@H]2O)c2ccccc2C(F)(F)F)CC1 [Example 2.49.112S., N-Cyclopropyl-4-((S)-(((2S,3R,4S,5R,6R)-3,5-dihydroxy-6-(hydroxymethyl)-4-(4-(3,4,5-trifluorophenyl)-1H-1,2,3-triazol-1-yl)tetrahydro-2H-pyran-2-yl)thio)(2-(trifluoromethyl)phenyl)methyl)-4-hydroxypiperidine-1-carboxamide] | 3060 | 12100 |  | 
COC(=O)N1CCC(O)([C@H](S[C@@H]2O[C@H](CO)[C@H](O)[C@H](n3cc(-c4cc(F)c(F)c(F)c4)nn3)[C@H]2O)c2ccccc2C(F)(F)F)CC1 [Example 2.50.112R., Methyl 4-((R)-(((2S,3R,4S,5R,6R)-3,5-dihydroxy-6-(hydroxymethyl)-4-(4-(3,4,5-trifluorophenyl)-1H-1,2,3-triazol-1-yl)tetrahydro-2H-pyran-2-yl)thio)(2-(trifluoromethyl)phenyl)methyl)-4-hydroxypiperidine-1-carboxylate] | 80 | 370 |  | 
COC(=O)N1CCC(O)([C@@H](S[C@@H]2O[C@H](CO)[C@H](O)[C@H](n3cc(-c4cc(F)c(F)c(F)c4)nn3)[C@H]2O)c2ccccc2C(F)(F)F)CC1 [Example 2.50.112S., Methyl 4-((S)-(((2S,3R,4S,5R,6R)-3,5-dihydroxy-6-(hydroxymethyl)-4-(4-(3,4,5-trifluorophenyl)-1H-1,2,3-triazol-1-yl)tetrahydro-2H-pyran-2-yl)thio)(2-(trifluoromethyl)phenyl)methyl)-4-hydroxypiperidine-1-carboxylate] | 7700 | 15800 |  | 
CO[C@@H]1[C@@H](n2cc(-c3cc(F)c(F)c(F)c3)nn2)[C@@H](O)[C@@H](CO)O[C@H]1SC(c1ccccc1C(F)(F)F)C1(O)CCN(S(=O)(=O)C2CC2)CC1 (stereo partly drawn) [Example 2.51.112.I., 1-(Cyclopropylsulfonyl)-4-((((2S,3R,4S,5R,6R)-5-hydroxy-6-(hydroxymethyl)-3-methoxy-4-(4-(3,4,5-trifluorophenyl)-1H-1,2,3-triazol-1-yl)tetrahydro-2H-pyran-2-yl)thio)(2-(trifluoromethyl)phenyl)methyl)piperidin-4-ol] | 80 | 350 |  | 
OC[C@H]1O[C@@H](SC(c2ccccc2)C2CC2)[C@H](O)[C@@H](n2cc(-c3cc(F)c(F)c(F)c3)nn2)[C@H]1O (stereo partly drawn) [Example 2.54.100., (2S,3R,4S,5R,6R)-2-((Cyclopropyl(phenyl)methyl)thio)-6-(hydroxymethyl)-4-(4-(3,4,5-trifluorophenyl)-1H-1,2,3-triazol-1-yl)tetrahydro-2H-pyran-3,5-diol, reference compound] | 3210 | 61200 |  | 
CCC(O)C(S[C@@H]1O[C@H](CO)[C@H](O)[C@H](n2cc(-c3cc(F)c(F)c(F)c3)nn2)[C@H]1O)c1ccccc1C(F)(F)F (stereo partly drawn) [Example 2.60.112., (2S,3R,4S,5R,6R)-2-((2-Hydroxy-1-(2-(trifluoromethyl)phenyl)butyl)thio)-6-(hydroxymethyl)-4-(4-(3,4,5-trifluorophenyl)-1H-1,2,3-triazol-1-yl)tetrahydro-2H-pyran-3,5-diol] | 230 | 3500 |  | 
OC[C@H]1O[C@@H](SC(c2ccccc2C(F)(F)F)C(O)c2ccccc2)[C@H](O)[C@@H](n2cc(-c3cc(F)c(F)c(F)c3)nn2)[C@H]1O (stereo partly drawn) [Example 2.61.112., (2S,3R,4S,5R,6R)-2-((2-Hydroxy-2-phenyl-1-(2-(trifluoromethyl)phenyl)ethyl)thio)-6-(hydroxymethyl)-4-(4-(3,4,5-trifluorophenyl)-1H-1,2,3-triazol-1-yl)tetrahydro-2H-pyran-3,5-diol] | 1100 | 7880 |  | 
Cc1ccccc1C(O)C(S[C@@H]1O[C@H](CO)[C@H](O)[C@H](n2cc(-c3cc(F)c(F)c(F)c3)nn2)[C@H]1O)c1ccccc1C(F)(F)F (stereo partly drawn) [Example 2.62.112., (2S,3R,4S,5R,6R)-2-((2-Hydroxy-2-(o-tolyl)-1-(2-(trifluoromethyl)phenyl)ethyl)thio)-6-(hydroxymethyl)-4-(4-(3,4,5-trifluorophenyl)-1H-1,2,3-triazol-1-yl)tetrahydro-2H-pyran-3,5-diol] | 1220 | 11700 |  | 
Cc1conc1C(S[C@@H]1O[C@H](CO)[C@H](O)[C@H](n2cc(-c3cc(F)c(F)c(F)c3)nn2)[C@H]1O)C1(O)CCS(=O)(=O)CC1 (stereo partly drawn) [Example 2.66.120., 4-((((2S,3R,4S,5R,6R)-3,5-Dihydroxy-6-(hydroxymethyl)-4-(4-(3,4,5-trifluorophenyl)-1H-1,2,3-triazol-1-yl)tetrahydro-2H-pyran-2-yl)thio)(4-methylisoxazol-3-yl)methyl)-4-hydroxytetrahydro-2H-thiopyran 1,1-dioxide] | 140 | 330 |  | 
Cc1conc1[C@@H](S[C@@H]1O[C@H](CO)[C@H](O)[C@H](n2cc(-c3cc(F)c(F)c(F)c3)nn2)[C@H]1O)C1(O)CCS(=O)(=O)CC1 [Example 2.66.120R., 4-((R)-(((2S,3R,4S,5R,6R)-3,5-Dihydroxy-6-(hydroxymethyl)-4-(4-(3,4,5-trifluorophenyl)-1H-1,2,3-triazol-1-yl)tetrahydro-2H-pyran-2-yl)thio)(4-methylisoxazol-3-yl)methyl)-4-hydroxytetrahydro-2H-thiopyran 1,1-dioxide] | 30 | 70 |  | 
CO[C@@H]1[C@@H](n2cc(-c3cc(F)c(F)c(F)c3)nn2)[C@@H](O)[C@@H](CO)O[C@H]1S[C@H](c1nocc1C)C1(O)CCS(=O)(=O)CC1 [Example 2.66.120R.I., 4-Hydroxy-4-((R)-(((2S,3R,4S,5R,6R)-5-hydroxy-6-(hydroxymethyl)-3-methoxy-4-(4-(3,4,5-trifluorophenyl)-1H-1,2,3-triazol-1-yl)tetrahydro-2H-pyran-2-yl)thio)(4-methylisoxazol-3-yl)methyl)tetrahydro-2H-thiopyran 1,1-dioxide] |  | 580 | 70 | 
Cc1conc1[C@H](S[C@@H]1O[C@H](CO)[C@H](O)[C@H](n2cc(-c3cc(F)c(F)c(F)c3)nn2)[C@H]1O)C1(O)CCS(=O)(=O)CC1 [Example 2.66.120S., 4-((S)-(((2S,3R,4S,5R,6R)-3,5-Dihydroxy-6-(hydroxymethyl)-4-(4-(3,4,5-trifluorophenyl)-1H-1,2,3-triazol-1-yl)tetrahydro-2H-pyran-2-yl)thio)(4-methylisoxazol-3-yl)methyl)-4-hydroxytetrahydro-2H-thiopyran 1,1-dioxide] | 4570 | 24100 |  | 
Cc1cccnc1[C@@H](S[C@@H]1O[C@H](CO)[C@H](O)[C@H](n2cc(-c3cc(F)c(F)c(F)c3)nn2)[C@H]1O)C1(O)CCS(=O)(=O)CC1 [Example 2.66.126R., 4-((R)-(((2S,3R,4S,5R,6R)-3,5-Dihydroxy-6-(hydroxymethyl)-4-(4-(3,4,5-trifluorophenyl)-1H-1,2,3-triazol-1-yl)tetrahydro-2H-pyran-2-yl)thio)(3-methylpyridin-2-yl)methyl)-4-hydroxytetrahydro-2H-thiopyran 1,1-dioxide] | 20 | 170 |  | 
CO[C@@H]1[C@@H](n2cc(-c3cc(F)c(F)c(F)c3)nn2)[C@@H](O)[C@@H](CO)O[C@H]1S[C@H](c1ncccc1C)C1(O)CCS(=O)(=O)CC1 [Example 2.66.126R.I., 4-Hydroxy-4-((R)-(((2S,3R,4S,5R,6R)-5-hydroxy-6-(hydroxymethyl)-3-methoxy-4-(4-(3,4,5-trifluorophenyl)-1H-1,2,3-triazol-1-yl)tetrahydro-2H-pyran-2-yl)thio)(3-methylpyridin-2-yl)methyl)tetrahydro-2H-thiopyran 1,1-dioxide] |  | 90 |  | 60
Cc1cccnc1[C@H](S[C@@H]1O[C@H](CO)[C@H](O)[C@H](n2cc(-c3cc(F)c(F)c(F)c3)nn2)[C@H]1O)C1(O)CCS(=O)(=O)CC1 [Example 2.66.126S., 4-((S)-(((2S,3R,4S,5R,6R)-3,5-Dihydroxy-6-(hydroxymethyl)-4-(4-(3,4,5-trifluorophenyl)-1H-1,2,3-triazol-1-yl)tetrahydro-2H-pyran-2-yl)thio)(3-methylpyridin-2-yl)methyl)-4-hydroxytetrahydro-2H-thiopyran 1,1-dioxide] | 2000 | 16500 |  | 
Cc1c(F)cc(-c2cn([C@H]3[C@@H](O)[C@@H](CO)O[C@@H](SC(c4ccccc4C(F)(F)F)C(C)(C)O)[C@@H]3O)nn2)cc1F (stereo partly drawn) [Example 3.31.112., (2S,3R,4S,5R,6R)-4-(4-(3,5-Difluoro-4-methylphenyl)-1H-1,2,3-triazol-1-yl)-2-((2-hydroxy-2-methyl-1-(2-(trifluoromethyl)phenyl)propyl)thio)-6-(hydroxymethyl)tetrahydro-2H-pyran-3,5-diol] | 210 | 4900 |  | 
